The source of these data is publication PMC8693618 (Bioorganic & medicinal chemistry, 2021).

Each structure is given as a SMILES string. Where two headings read alike, the source gives them in different places.

One series concerns the target human PANK3 (Homo sapiens, UniProt Q9H999). The conditions noted are these: tested up to 10 μM.
Series [1] is described as follows: PAMPA passive permeability. The class given is in vitro ADME. (In general: In PAMPA a lipid-coated filter parts donor from acceptor wells.)
The conditions of series [2]: mouse, rat, and human plasma; previously determined ref 8; cited from earlier work.
The conditions of series [3]: passive permeability; previously determined ref 8; cited from earlier work.
The next series relates to Caco2. The conditions noted are these: previously determined ref 8; cited from earlier work.
In series [4] the test system is Plasma Protein. The conditions noted are these: human; previously determined ref 8; cited from earlier work.
Series [5] deals with Plasma Protein. The conditions noted are these: rat; previously determined ref 8; cited from earlier work.
Series [6] has as its system Plasma Protein. The conditions noted are these: mouse; previously determined ref 8; cited from earlier work.

Chain of human PANK3 (Q9H999 whole entry): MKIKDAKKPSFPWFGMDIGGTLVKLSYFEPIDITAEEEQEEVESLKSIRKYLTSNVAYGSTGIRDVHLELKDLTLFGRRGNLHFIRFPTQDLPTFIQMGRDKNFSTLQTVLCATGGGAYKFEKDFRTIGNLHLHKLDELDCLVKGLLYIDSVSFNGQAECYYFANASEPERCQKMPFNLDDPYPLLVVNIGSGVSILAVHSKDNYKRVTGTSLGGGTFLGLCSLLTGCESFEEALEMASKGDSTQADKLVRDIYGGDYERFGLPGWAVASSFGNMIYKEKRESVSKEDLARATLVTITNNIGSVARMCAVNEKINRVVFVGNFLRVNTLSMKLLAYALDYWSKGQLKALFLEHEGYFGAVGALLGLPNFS

Turning to `N#Cc1ccc(N2CCN(C(=O)Nc3ccc(C(F)(F)F)cc3)CC2)nc1` [Compound 18, 4-(5-cyanopyridin-2-yl)-N-(4-(trifluoromethyl)phenyl)piperazine-1-carboxamide], on human PANK3, the “PANK3 inhibitory activity in words” value was “inactive”.
For the molecule `CCc1ccc(NC(=O)N2CCN(c3ccc(C#N)cn3)CC2)cc1` [Compound 3, 4-(5-cyanopyridin-2-yl)-N-(4-ethylphenyl)piperazine-1-carboxamide], the “PANK3 inhibitory activity in words” value at human PANK3 is listed as “did not show activity”.
Still for that read-out and setting: the same measure for `CC(C)c1ccc(C(=O)N2CCN(c3ccc(C#N)cn3)CC2)cc1` [Compound 28, 6-(4-(4-isopropylbenzoyl)piperazin-1-yl) nicotinonitrile]: “complete loss of activity”.
As to `CC(C)c1ccc(NC(=O)N2CCN(c3ccc(C#N)nn3)CC2)cc1` [Compound 56, 4-(6-cyanopyridazin-3-yl)-N-(4-isopropylphenyl) piperazine-1-carboxamide], the PAMPA in series [1] was 316 1 × 10^−6 cm/s.
As for `CC(C)c1ccc(CC(=O)N2CCN(c3ccc(C#N)nn3)CC2)cc1` [Compound 57, 6-(4-(2-(4-isopropylphenyl)acetyl)piperazin-1-yl) pyridazine-3-carbonitrile], the “Plasma Stability T1/2” value in series [2] was more than 48 h. For the same molecule, the PAMPA in series [3] was 413 1 × 10^−6 cm/s. In addition, the “Caco2 Permeability A/B” value in the series on Caco2 was 302 nm/s. The entries for the “Plasma Protein Binding” value in the series with Plasma Protein [4], in the series with Plasma Protein [5] and in the series on Plasma Protein [6] were 93%, 91% and 92%, respectively.
Regarding `CC(C)(C)c1ccc(NC(=O)N2CCN(c3ccc(C#N)cn3)CC2)cc1` [Compound 1, N-(4-(tert-butyl)phenyl)-4-(5-cyanopyridin-2-yl) piperazine-1-carboxamide], the PAMPA in series [1] is on record as 1232 1 × 10^−6 cm/s.
With `CCCCc1ccc(NC(=O)N2CCN(c3ccc(C#N)cn3)CC2)cc1` [Compound 8, N-(4-butylphenyl)-4-(5-cyanopyridin-2-yl)piperazine-1-carboxamide], the “PANK3 inhibitory activity in words” value at human PANK3 is “did not show activity”.
In the case of `N#Cc1ccc(N2CCN(C(=O)Nc3ccc(Br)cc3)CC2)nc1` [Compound 14, N-(4-bromophenyl)-4-(5-cyanopyridin-2-yl)piperazine-1-carboxamide], the “PANK3 inhibitory activity in words” value at human PANK3 is “inactive”.
Take `CC(C)c1ccc(C(=O)CN2CCN(c3ccc(C#N)cn3)CC2)cc1` [Compound 32, 6-(4-(2-(4-isopropylphenyl)-2-oxoethyl)piperazin-1-yl)nicotinonitrile]: the “PANK3 inhibitory activity in words” value on human PANK3 was “loss of activity”.
